Laboratory results from patent US10988434B2, “Fragrance mixture” (SYMRISE AG, priority 2016, dated 2021).

Assay: Storage stability under drastic conditions
Format: physicochemical
Conditions: 60° C. and 5 bar pressure
Procedure: Example 15: Stability Studies
Mesaconic acid diethyl ester (MSDEE) was stored alone and as a component of various formulations for 24 and 72 hours respectively under drastic conditions at 60° C. and 5 bar pressure. The remaining amount of active substance was then determined.

- Storage stability: remaining amount of active substance (MSDEE) After 24 h (24 h): 98%
- Storage stability: remaining amount of active substance (MSDEE) After 72 h (72 h): 98%
SMILES: CCOC(=O)/C=C(\C)C(=O)OCC [Mesaconic acid diethyl ester, (E)-2-methyl-but-2-endicarboxylic acid diethyl ester]
